# Measured values taken from paper PMC4890168 (Journal of medicinal chemistry, 2016).
# Experiments:
# [1] = test system: cardiomyocytes isolated from adult mice; experiment: Contractility in mouse cardiomyocytes; conditions: for potency at stimulating cardiomyocyte contraction: compared with lead 2, isoproterenol stimulation
# [2] = target: PKA (Homo sapiens, UniProt P17612); experiment: PKA inhibition, ADP-Glo Kinase Assay
# [3] = target: T1, GRK1 (Homo sapiens, UniProt Q15835); experiment: GRK1 kinase inhibition
# T1 sequence (Q15835 1-563): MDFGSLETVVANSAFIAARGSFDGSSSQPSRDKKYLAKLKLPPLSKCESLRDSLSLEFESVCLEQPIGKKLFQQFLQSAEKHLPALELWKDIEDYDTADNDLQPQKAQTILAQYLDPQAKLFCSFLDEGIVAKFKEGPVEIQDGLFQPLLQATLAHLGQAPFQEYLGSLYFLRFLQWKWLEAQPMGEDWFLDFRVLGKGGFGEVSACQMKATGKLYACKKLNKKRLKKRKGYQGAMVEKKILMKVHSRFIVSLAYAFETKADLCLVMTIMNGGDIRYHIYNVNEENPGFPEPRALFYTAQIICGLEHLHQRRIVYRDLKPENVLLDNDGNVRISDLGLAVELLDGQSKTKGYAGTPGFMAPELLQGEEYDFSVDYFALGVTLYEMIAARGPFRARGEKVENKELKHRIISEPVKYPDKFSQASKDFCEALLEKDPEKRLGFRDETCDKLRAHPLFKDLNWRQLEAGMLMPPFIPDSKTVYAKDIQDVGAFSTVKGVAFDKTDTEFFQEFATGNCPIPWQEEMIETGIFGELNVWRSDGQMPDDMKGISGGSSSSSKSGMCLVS
# [4] = target: ROCK1 (Homo sapiens, UniProt Q13464); experiment: ROCK1 inhibition, ADP-Glo Kinase Assay
# [5] = target: GRK5 (Homo sapiens, UniProt P34947); experiment: GRK5 kinase inhibition
# [6] = target: T2, GRK2 (Bos taurus, UniProt P21146, S670A, species not given); experiment: GRK2 kinase inhibition; type: biochemical; conditions: GRK2, GRK1, GRK5, PKA (Table 2)
# T2 sequence (P21146 1-689 S670A): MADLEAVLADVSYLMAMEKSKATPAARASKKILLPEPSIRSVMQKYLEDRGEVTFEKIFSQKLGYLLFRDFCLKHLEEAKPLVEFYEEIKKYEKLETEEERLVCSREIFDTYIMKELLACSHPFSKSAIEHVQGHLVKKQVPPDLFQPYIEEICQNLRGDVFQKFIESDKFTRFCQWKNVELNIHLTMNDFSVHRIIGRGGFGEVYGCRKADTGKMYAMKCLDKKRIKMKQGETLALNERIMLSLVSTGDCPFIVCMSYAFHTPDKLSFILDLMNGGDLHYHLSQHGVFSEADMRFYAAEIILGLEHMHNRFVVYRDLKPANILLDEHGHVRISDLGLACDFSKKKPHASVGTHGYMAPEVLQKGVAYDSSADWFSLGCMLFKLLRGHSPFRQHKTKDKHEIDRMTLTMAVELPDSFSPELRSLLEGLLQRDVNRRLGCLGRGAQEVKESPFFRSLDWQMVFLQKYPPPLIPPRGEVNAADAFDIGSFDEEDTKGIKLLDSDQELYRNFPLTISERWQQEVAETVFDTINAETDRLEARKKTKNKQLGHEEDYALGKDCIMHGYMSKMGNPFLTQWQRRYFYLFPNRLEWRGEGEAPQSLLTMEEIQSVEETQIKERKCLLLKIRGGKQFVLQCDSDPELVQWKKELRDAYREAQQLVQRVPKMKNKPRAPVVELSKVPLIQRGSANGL
# Sequence of ROCK1 (Q13464 whole entry, species assumed): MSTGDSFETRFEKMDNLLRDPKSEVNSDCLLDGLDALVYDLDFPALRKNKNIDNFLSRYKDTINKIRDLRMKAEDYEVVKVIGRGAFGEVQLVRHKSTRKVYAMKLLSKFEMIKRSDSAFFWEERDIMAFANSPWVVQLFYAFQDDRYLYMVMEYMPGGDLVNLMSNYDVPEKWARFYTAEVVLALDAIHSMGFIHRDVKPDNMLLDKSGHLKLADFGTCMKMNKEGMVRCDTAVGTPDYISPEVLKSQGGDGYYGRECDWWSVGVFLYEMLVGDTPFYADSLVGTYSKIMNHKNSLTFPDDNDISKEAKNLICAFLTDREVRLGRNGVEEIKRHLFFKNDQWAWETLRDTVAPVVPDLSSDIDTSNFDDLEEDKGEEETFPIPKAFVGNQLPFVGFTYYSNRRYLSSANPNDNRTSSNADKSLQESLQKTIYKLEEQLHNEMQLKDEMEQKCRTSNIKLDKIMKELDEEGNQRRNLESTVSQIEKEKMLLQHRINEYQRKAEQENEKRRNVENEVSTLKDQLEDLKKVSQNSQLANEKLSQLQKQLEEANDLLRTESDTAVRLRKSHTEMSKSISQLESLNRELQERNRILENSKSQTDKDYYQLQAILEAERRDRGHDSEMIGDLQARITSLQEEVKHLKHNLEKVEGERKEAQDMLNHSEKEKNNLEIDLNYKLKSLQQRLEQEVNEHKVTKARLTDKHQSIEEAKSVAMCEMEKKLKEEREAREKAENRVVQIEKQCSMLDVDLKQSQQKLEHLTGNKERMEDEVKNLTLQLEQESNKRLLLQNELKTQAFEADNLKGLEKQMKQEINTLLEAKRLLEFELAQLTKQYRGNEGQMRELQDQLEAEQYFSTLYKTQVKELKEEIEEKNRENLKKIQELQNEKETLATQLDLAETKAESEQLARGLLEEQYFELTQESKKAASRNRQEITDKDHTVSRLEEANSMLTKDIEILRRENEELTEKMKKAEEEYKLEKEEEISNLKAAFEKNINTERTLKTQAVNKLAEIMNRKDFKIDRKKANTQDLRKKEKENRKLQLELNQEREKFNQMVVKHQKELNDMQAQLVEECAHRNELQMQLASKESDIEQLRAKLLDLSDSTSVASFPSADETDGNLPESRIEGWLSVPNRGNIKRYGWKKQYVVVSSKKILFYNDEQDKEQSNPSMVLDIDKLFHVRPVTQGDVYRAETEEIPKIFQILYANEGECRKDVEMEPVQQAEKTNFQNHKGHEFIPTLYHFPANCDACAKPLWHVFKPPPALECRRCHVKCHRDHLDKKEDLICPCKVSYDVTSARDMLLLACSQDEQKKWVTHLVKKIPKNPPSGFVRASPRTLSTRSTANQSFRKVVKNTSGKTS
# Sequence of GRK5 (P34947 whole entry, species assumed): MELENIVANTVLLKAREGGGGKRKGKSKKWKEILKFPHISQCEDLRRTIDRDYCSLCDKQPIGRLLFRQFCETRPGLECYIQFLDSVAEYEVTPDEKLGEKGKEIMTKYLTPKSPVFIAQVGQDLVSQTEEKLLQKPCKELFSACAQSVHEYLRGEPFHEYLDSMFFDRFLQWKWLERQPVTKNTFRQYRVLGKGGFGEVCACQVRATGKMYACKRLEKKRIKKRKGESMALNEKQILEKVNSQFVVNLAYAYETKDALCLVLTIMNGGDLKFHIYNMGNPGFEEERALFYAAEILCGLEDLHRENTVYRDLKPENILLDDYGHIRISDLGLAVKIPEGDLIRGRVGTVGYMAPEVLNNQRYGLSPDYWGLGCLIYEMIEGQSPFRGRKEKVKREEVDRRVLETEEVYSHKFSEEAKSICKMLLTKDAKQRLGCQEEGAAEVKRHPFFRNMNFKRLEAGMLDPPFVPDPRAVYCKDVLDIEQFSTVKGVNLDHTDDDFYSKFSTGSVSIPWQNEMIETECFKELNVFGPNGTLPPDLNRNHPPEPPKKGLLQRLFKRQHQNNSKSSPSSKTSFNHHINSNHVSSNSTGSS
smiles,measurement,setting,value
"CC1=C(C(=O)Nc2ccc3[nH]ncc3c2)C(c2ccc(F)cc2)NC(=O)N1 (stereo not drawn) [Compound 2, GSK180736A, reference compound]",concentration showing similar efficacy as paroxetine (10 μM) on contractility,"[1]; isoproterenol 0.5 μM, 10 min pretreatment",1 µM
"CC1=C(C(=O)Nc2ccc3[nH]ncc3c2)C(c2ccc(F)c(C(=O)NCc3c(F)cccc3F)c2)NC(=O)N1 (stereo not drawn) [Compound 12d, 4-(3-((2,6-Difluorobenzyl)carbamoyl)-4-fluorophenyl)-N-(1H-indazol-5-yl)-6-methyl-2-oxo-1,2,3,4-tetrahydropyrimidine-5-carboxamide]",potency at stimulating cardiomyocyte contraction,[1],equivalent to or slightly more potent than the lead 2
same,IC50,[2],> 100 µM
"CC1=C(C(=O)Nc2ccc3[nH]ncc3c2)C(c2ccc(F)c(C(=O)NCc3nccc4ccccc34)c2)NC(=O)N1 (stereo not drawn) [Compound 12k, 4-(4-Fluoro-3-((isoquinolin-1-ylmethyl)carbamoyl)phenyl)-N-(1H-indazol-5-yl)-6-methyl-2-oxo-1,2,3,4-tetrahydropyrimidine-5-carboxamide]",increase in GRK1 potency in comparison to 12h,[3],50 fold
same,IC50,[4],~0.01 µM
"CC1=C(C(=O)Nc2ccc3[nH]ncc3c2)C(c2ccc(F)c(C(=O)NCc3c(Cl)cccc3Cl)c2)NC(=O)N1 (stereo not drawn) [Compound 12l, 4-(3-((2,6-Dichlorobenzyl)carbamoyl)-4-fluorophenyl)-N-(1H-indazol-5-yl)-6-methyl-2-oxo-1,2,3,4-tetrahydropyrimidine-5-carboxamide]",selectivity for GRK2 over GRK5,[5],over 770 fold
same,selectivity for GRK2 over GRK1,[3],over 770 fold
same,IC50,[2],> 100 µM
"CC1=C(C(=O)Nc2ccc3[nH]ncc3c2)C(c2ccc(F)c(C(=O)NCc3c(C)cccc3C)c2)NC(=O)N1 (stereo not drawn) [Compound 12m, 4-(3-((2,6-Dimethylbenzyl)carbamoyl)-4-fluorophenyl)-N-(1H-indazol-5-yl)-6-methyl-2-oxo-1,2,3,4-tetrahydropyrimidine-5 carboxamide]",potency at stimulating cardiomyocyte contraction,[1],equivalent to or slightly more potent than the lead 2
same,IC50,[2],> 100 µM
"COc1cccc(OC)c1CNC(=O)c1cc(C2NC(=O)NC(C)=C2C(=O)Nc2ccc3[nH]ncc3c2)ccc1F (stereo not drawn) [Compound 12n, 4-(3-((2,6-Dimethoxybenzyl)carbamoyl)-4-fluorophenyl)-N-(1H-indazol-5-yl)-6-methyl-2-oxo-1,2,3,4-tetrahydropyrimidine-5-carboxamide]",decrease in potency at GRK5 compared to 12e,[5],43 fold
same,decrease in potency at GRK1 compared to 12e,[3],6 fold
same,potency at stimulating cardiomyocyte contraction,[1],equivalent to or slightly more potent than the lead 2
same,decrease in potency at ROCK1 compared to 12e,[4],over 175 fold
same,inhibition of ROCK1,[4],no detectable inhibition
same,IC50,[2],> 100 µM
"CC1=C(C(=O)Nc2ccc3c(c2)OCO3)C(c2ccc(F)c(C(=O)NCc3ccccn3)c2)NC(=O)N1 (stereo not drawn) [Compound 24, N-(Benzo[d][1,3]dioxol-5-yl)-4-(4-fluoro-3-((pyridin-2-ylmethyl)carbamoyl)phenyl)-6-methyl-2-oxo-1,2,3,4-tetrahydropyrimidine-5-carboxamide]",kinase inhibition,[6],completely inactive
same,IC50,[2],> 100 µM
